Like-named read-outs stand apart in the source and are kept apart here.
What was measured:
[1] = target: human DGKα (Homo sapiens (Human), UniProt P23743); assay: DGKα ADPGLO assay (detergent/lipid micelle substrate); assay type: biochemical
Procedure: DGK Alpha ADPGLO (Truncated) IC50 (uM)
The detergent/lipid micelle was prepared by combining 15 g phosphatidylserine (Avanti 840035P) and 1 g diacylglycerol (8008110) and dissolving into 150 mL chloroform in a 2 L round bottom flask. Chloroform was removed under high vacuum by rotary evaporation. […] The lipid/detergent solution was split into 5 mL aliquots and stored at −80° C.

[2] = target: human DGKζ (Homo sapiens (Human), UniProt Q13574); assay: DGKζ LIPGLO assay (extruded liposome substrate, ADP-Glo luminescence); assay type: biochemical
Sequence of human DGKζ (Q13574 other isoform, or with tags, fused parts or gaps): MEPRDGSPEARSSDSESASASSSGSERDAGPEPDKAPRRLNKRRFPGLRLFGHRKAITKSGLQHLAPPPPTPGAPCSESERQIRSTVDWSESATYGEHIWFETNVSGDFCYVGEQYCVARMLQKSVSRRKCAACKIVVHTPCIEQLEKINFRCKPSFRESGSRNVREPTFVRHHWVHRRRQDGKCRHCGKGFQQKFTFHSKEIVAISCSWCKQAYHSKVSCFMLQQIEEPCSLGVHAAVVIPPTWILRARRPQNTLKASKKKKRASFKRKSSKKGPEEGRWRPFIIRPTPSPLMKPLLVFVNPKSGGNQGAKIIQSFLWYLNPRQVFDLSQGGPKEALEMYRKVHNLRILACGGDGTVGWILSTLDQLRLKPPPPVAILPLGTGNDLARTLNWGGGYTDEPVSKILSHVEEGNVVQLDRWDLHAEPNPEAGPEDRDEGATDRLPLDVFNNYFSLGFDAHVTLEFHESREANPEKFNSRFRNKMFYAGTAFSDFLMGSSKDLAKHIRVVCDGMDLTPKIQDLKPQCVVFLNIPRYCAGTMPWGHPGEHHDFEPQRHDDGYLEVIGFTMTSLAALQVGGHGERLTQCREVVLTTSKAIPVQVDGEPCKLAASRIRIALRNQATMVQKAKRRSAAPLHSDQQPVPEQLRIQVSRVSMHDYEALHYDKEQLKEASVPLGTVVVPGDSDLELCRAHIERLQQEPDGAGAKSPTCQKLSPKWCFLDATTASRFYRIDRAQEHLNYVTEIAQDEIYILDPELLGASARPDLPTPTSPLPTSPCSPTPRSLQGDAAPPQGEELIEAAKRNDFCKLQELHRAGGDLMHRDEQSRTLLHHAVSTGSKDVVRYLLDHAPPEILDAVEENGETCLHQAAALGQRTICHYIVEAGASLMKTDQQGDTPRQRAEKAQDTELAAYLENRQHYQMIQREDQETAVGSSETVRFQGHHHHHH

[3] = system: human venous whole blood (IFN-γ); assay: Human whole blood IFN-γ assay; assay type: cell-based
Procedure: Human venous whole blood (22.5 μL per well), obtained from healthy donors, was pre-treated with compounds for one hour at 37° C. in a humidified 95% air/5% CO2 incubator. The blood was stimulated with 2.5 μL anti-human CD3 and anti-CD28 mAb at a final concentration of 1 μg/mL each for 24 hours at 37° C. IFN-γ in the supernatants was measured using AlphLISA kit (Cat #AL217).

[4] = ADPGLO assay, read-out: DGK alpha ADPGLO IC50
[5] = liposome (LIPGLO) assay, read-out: DGK zeta (liposome assay) IC50
[6] = truncated DGK alpha, read-out: DGK alpha ADPGLO (Truncated) IC50
[7] = liposome assay, read-out: DGK zeta LIPGLO IC50
[8] = Homo sapiens, 24 h, human whole blood, anti-CD3 plus anti-CD28 stimulation, 24 hours, read-out: IFN-γ Whole Blood EC50
[9] = whole blood, normalized to 3 μM reference compound as 100% activation, read-out: IFN-γ Whole Blood Normalized EC50
[10] = Homo sapiens, whole blood, normalized to 3 μM reference compound as 100% activation, read-out: IFN-γ Whole Blood Normalized EC50

Sequence of human DGKα (P23743 whole entry, looked up, the tested form may be a part): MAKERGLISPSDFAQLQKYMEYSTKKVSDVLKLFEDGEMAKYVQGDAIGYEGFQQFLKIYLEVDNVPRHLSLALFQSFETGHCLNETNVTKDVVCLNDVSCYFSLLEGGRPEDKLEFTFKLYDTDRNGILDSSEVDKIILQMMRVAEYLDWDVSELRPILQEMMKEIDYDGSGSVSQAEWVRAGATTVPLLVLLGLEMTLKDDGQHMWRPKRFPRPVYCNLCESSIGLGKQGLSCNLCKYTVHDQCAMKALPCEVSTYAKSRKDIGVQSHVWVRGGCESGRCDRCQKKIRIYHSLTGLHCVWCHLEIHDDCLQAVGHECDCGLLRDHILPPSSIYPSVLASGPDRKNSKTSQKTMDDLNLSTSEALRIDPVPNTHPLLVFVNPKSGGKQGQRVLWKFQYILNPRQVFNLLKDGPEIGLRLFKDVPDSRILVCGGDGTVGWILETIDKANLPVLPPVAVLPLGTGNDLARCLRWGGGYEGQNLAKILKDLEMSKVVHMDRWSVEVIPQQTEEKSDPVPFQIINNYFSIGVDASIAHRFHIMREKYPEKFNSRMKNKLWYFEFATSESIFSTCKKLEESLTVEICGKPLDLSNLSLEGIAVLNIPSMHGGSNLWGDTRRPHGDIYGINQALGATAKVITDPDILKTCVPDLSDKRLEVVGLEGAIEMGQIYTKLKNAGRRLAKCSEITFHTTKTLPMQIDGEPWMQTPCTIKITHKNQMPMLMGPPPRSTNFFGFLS

| SMILES | IC50 [1, 4] [µM] | IC50 [2, 5] [µM] | IC50 [2, 7] [µM] | also measured |
| --- | --- | --- | --- | --- |
| CCC(c1ccc(OC(F)F)cc1)N1C[C@H](CC)N(c2nc(=O)n(C)c3ccc(C#N)nc23)C[C@H]1CC (stereo partly drawn) [Example 222, 4-((2S,5R)-4-(1-(4-(difluoromethoxy)phenyl)propyl)-2,5-diethylpiperazin-1-yl)-1-methyl-2-oxo-1,2-dihydropyrido[3,2-d]pyrimidine-6-carbonitrile] | – | – | 0.017 | IC50 [1, 6]: 0.002 µM |
| CC[C@@H]1CN(c2nc(=O)n(C)c3ccc(C#N)nc23)[C@@H](CC)CN1Cc1ccc(OCC2CC2)cc1 [Example 185, 4-((2S,5R)-4-(4-(Cyclopropylmethoxy)benzyl)-2,5-diethylpiperazin-1-yl)-1-methyl-2-oxo-1,2-dihydropyrido[3,2-d]pyrimidine-6-carbonitrile] | – | – | 0.61 | IC50 [1, 6]: 0.27 µM |
| CC[C@@H]1CN(c2nc(=O)n(C)c3ccc(C#N)nc23)[C@@H](C)CN1C(C)c1ccc(C(F)(F)F)cc1 (single isomer, unassigned) [Example 7] | – | – | – | IC50 [1, 6]: 0.18 µM |
| CCCC(c1ccc(C(F)(F)F)cc1)N1C[C@H](CC)N(c2nc(=O)n(C)c3ccc(C#N)nc23)C[C@H]1CC (stereo partly drawn) [Example 244, 4-((2S,5R)-2,5-Diethyl-4-(1-(4-(trifluoromethyl)phenyl)butyl)piperazin-1-yl)-1-methyl-2-oxo-1,2-dihydropyrido[3,2-d]pyrimidine-6-carbonitrile] | – | – | – | EC50 [3, 9]: 13.3 µM |
| CC[C@H]1CN(C(C)c2ccc(OC(F)(F)F)cc2F)[C@H](CC)CN1c1nc(=O)n(C)c2ccc(C#N)nc12 (single isomer, unassigned) [Example 39] | – | – | 0.77 | EC50 [3, 9]: 2.73 µM |
| CC[C@H]1CN(C(C)c2ccc(N3CCCC3=O)cc2)[C@H](CC)CN1c1nc(=O)n(C)c2ccc(C#N)nc12 (stereo partly drawn) [Example 231, 4-((2S,5R)-2,5-diethyl-4-(1-(4-(2-oxopyrrolidin-1-yl)phenyl)ethyl)piperazin-1-yl)-1-methyl-2-oxo-1,2-dihydropyrido[3,2-d]pyrimidine-6-carbonitrile] | – | – | – | EC50 [3, 9]: 9.74 µM |
| CCOC(=O)[C@H]1C[C@@H]1Oc1ccc(C(C)N2C[C@H](CC)N(c3nc(=O)n(C)c4ccc(C#N)nc34)C[C@H]2CC)cc1 (stereo partly drawn) [Example 260, ethyl (1S,2S)-2-(4-(1-((2R,5S)-4-(6-cyano-1-methyl-2-oxo-1,2-dihydropyrido[3,2-d]pyrimidin-4-yl)-2,5-diethylpiperazin-1-yl)ethyl)phenoxy)cyclopropane-1-carboxylate] | – | – | 3.03 | – |
| CCC(c1ccc(C(F)(F)F)cc1)N1C[C@H](CC)N(c2nc(=O)n(C)c3ccc(C#N)nc23)C[C@H]1CC (single isomer, unassigned) [Example 5] | – | – | – | IC50 [1, 6]: 0.064 µM |
| CC[C@@H]1CN(c2nc(=O)n(C)c3ccc(C#N)nc23)[C@@H](C)CN1C(c1ccc(F)cc1)c1cc(C2CC2)on1 (single isomer, unassigned) [Example 102] | – | – | 0.094 | – |
| C[C@@H]1CN(c2nc(=O)n(C)c3ccc(C#N)nc23)[C@@H](C)CN1C(c1ccc(F)cc1)c1ccc(C(F)(F)F)cn1 (stereo in doubt) [Example 126] | – | – | – | EC50 [3, 10]: 0.68 µM |
| CC[C@@H]1CN(c2nc(=O)n(C)c3ccc(C#N)nc23)[C@@H](C)CN1Cc1ccc2c(c1)OC(F)(F)O2 [Example 55, 4-((2S,5R)-((2,2-difluorobenzo[d][1,3]dioxol-5-yl)methyl)-5-ethyl-2-methylpiperazin-1-yl)-1-methyl-2-oxo-1,2-dihydropyrido[3,2-d]pyrimidine-6-carbonitrile] | – | – | – | EC50 [3, 10]: 0.79 µM |

Now from value to compound, other results behind:

| IC50 [1, 4] [µM] | IC50 [2, 5] [µM] | IC50 [2, 7] [µM] | SMILES | also measured |
| --- | --- | --- | --- | --- |
| 0.013 | 0.006 | – | CCC(c1ccc(OC2CC2)cc1)N1C[C@H](C)N(c2nc(=O)n(C)c3ccc(C#N)nc23)C[C@H]1CC (stereo partly drawn) [Example 311, 4-((2S,5R)-4-(1-(4-cyclopropoxyphenyl)propyl)-5-ethyl-2-methylpiperazin-1-yl)-1-methyl-2-oxo-1,2-dihydropyrido[3,2-d]pyrimidine-6-carbonitrile] | – |
| – | – | 0.43 | CCC(c1ccc(C2CC2)cc1)N1C[C@H](C)N(c2nc(=O)n(C)c3ccc(C#N)nc23)C[C@H]1CC (stereo partly drawn) [Example 301, 4-((2S,5R)-4-(1-(4-cyclopropylphenyl)propyl)-5-ethyl-2-methylpiperazin-1-yl)-1-methyl-2-oxo-1,2-dihydropyrido[3,2-d]pyrimidine-6-carbonitrile] | IC50 [1, 6]: 0.13 µM |
| 0.09 | 0.76 | – | [2H]C([2H])([2H])n1c(=O)nc(N2C[C@@H](CC)N(C(C)c3ccc(C(F)(F)F)cc3)C[C@@H]2C)c2nc(C#N)ccc21 (single isomer, unassigned) [Example 420] | – |
| 14.9 | 2.72 | – | CC[C@@H]1CN(c2nc(=O)n(C)c3ccc(C#N)nc23)[C@@H](C)CN1C(C)c1ccc(C(F)(F)F)c(CN(C)C)c1 (stereo partly drawn) [Example 352, 4-((2S,5R)-4-(1-(3-((dimethylamino)methyl)-4-(trifluoromethyl)phenyl)ethyl)-5-ethyl-2-methylpiperazin-1-yl)-1-methyl-2-oxo-1,2-dihydropyrido[3,2-d]pyrimidine-6-carbonitrile] | – |
| – | – | 0.26 | CC[C@@H]1CN(c2nc(=O)n(C)c3ccc(C#N)nc23)[C@@H](CC)CN1CC1CCC(F)(F)CC1 [Example 269, 4-((2S,5R)-4-((4,4-difluorocyclohexyl)methyl)-2,5-diethylpiperazin-1-yl)-1-methyl-2-oxo-1,2-dihydropyrido[3,2-d]pyrimidine-6-carbonitrile] | IC50 [1, 6]: 0.58 µM |
| 0.077 | 0.28 | – | CCOc1ccc(CN2C[C@H](C)N(c3nc(=O)n(C)c4ccc(C#N)nc34)C[C@H]2CC)cc1 [Example 310, 4-((2S,5R)-4-(4-ethoxybenzyl)-5-ethyl-2-methylpiperazin-1-yl)-1-methyl-2-oxo-1,2-dihydropyrido[3,2-d]pyrimidine-6-carbonitrile] | – |
| – | – | 43.6 | CC[C@H]1CN(C(C)c2ccc(CN3CCCCC3)cc2)[C@H](CC)CN1c1nc(=O)n(C)c2ccc(C#N)nc12 (stereo partly drawn) [Example 281, 4-((2S,5R)-2,5-diethyl-4-(1-(4-(piperidin-1-ylmethyl)phenyl)ethyl)piperazin-1-yl)-1-methyl-2-oxo-1,2-dihydropyrido[3,2-d]pyrimidine-6-carbonitrile] | IC50 [1, 6]: 7.17 µM |
| 0.22 | 2.37 | – | COC[C@H]1CN(C(C)c2ccc(C(F)(F)F)cc2)[C@H](C)CN1c1nc(=O)n(C)c2ccc(C#N)nc12 (single isomer, unassigned) [Example 410] | – |
| – | 99.5 | – | CCOc1ccc2c(n1)c(N1C[C@@H](CC)N(C(C)c3ccc(C(F)(F)F)cc3)C[C@@H]1CC)nc(=O)n2C (stereo partly drawn) [Example 429, 4-((2S,5R)-2,5-diethyl-4-(1-(4-(trifluoromethyl)phenyl)ethyl)piperazin-1-yl)-6-ethoxy-1-methylpyrido[3,2-d]pyrimidin-2(1H)-one] | EC50 [3, 8]: 20 µM |
| 0.09 | 0.064 | – | CCC(c1ccc(C(F)(F)F)cc1)N1C[C@H](C)N(c2nc(=O)n(C)c3ccc(C#N)nc23)C[C@H]1COC (single isomer, unassigned) [Example 398] | – |
| 10.2 | 12.1 | – | CCC(C1CC(F)(F)C1)N1C[C@H](C)N(c2nc(=O)n(C)c3ccc(C#N)nc23)C[C@H]1C (stereo partly drawn) [Example 456, 4-((2S,5R)-4-(1-(3,3-difluorocyclobutyl)propyl)-2,5-dimethylpiperazin-1-yl)-1-methyl-2-oxo-1,2-dihydropyrido[3,2-d]pyrimidine-6-carbonitrile] | – |
| 0.024 | 0.22 | – | CC[C@@H]1CN(c2nc(=O)n(C)c3ccc(C#N)nc23)[C@@H](C)CN1C(C)c1ccc(CNC(=O)OC)cc1 (stereo partly drawn) [Example 359, Methyl (4-(1-((2R,5S)-4-(6-cyano-1-methyl-2-oxo-1,2-dihydropyrido[3,2-d]pyrimidin-4-yl)-2-ethyl-5-methylpiperazin-1-yl)ethyl)benzyl)carbamate] | – |
| – | – | 8.54 | CC[C@H]1CN(C(C)c2ccc(CN3CCC(O)CC3)cc2)[C@H](CC)CN1c1nc(=O)n(C)c2ccc(C#N)nc12 (stereo partly drawn) [Example 285, 4-((2S,5R)-2,5-diethyl-4-(1-(4-((4-hydroxypiperidin-1-yl)methyl)phenyl)ethyl)piperazin-1-yl)-1-methyl-2-oxo-1,2-dihydropyrido[3,2-d]pyrimidine-6-carbonitrile] | IC50 [1, 6]: 4.1 µM |
| 0.92 | – | – | CCC[C@@H]1CN(c2nc(=O)n(C)c3ccc(C#N)nc23)[C@@H](C)CN1C(C)c1ccc(C(F)(F)F)cc1 (single isomer, unassigned) [Example 396] | – |
| – | 41.7 | – | CC[C@H]1CN(C(C)c2ccc(C(F)(F)F)cc2)[C@H](CC)CN1c1nc(=O)n(C)c2ccc(OCCN(C)C)nc12 (stereo partly drawn) [Example 432, 4-((2S,5R)-2,5-diethyl-4-(1-(4-(trifluoromethyl)phenyl)ethyl)piperazin-1-yl)-6-(2-(dimethylamino)ethoxy)-1-methylpyrido[3,2-d]pyrimidin-2(1H)-one] | EC50 ([3]; human whole blood, anti-CD3 plus anti-CD28 stimulation, 24 hours, read-out: IFN-γ Whole Blood EC50): 20 µM |
| – | 125 | – | CC[C@H]1CN(C(C)c2ccc(C(F)(F)F)cc2)[C@H](CC)CN1c1nc(=O)n(C)c2ccc(OC)nc12 (single isomer, unassigned) [Example 428] | EC50 [3, 8]: 20 µM |
